According to PubChem BioAssay AID278 (DTP/NCI, 2004):
“And” between values parts separate entries of the source, which are not always exact repeats. Equal values may be shown once. Records with an inconclusive call do not appear.

Tested on: nude mice, A549 intrarenal xenograft, tumor weight change
Assay: NCI In Vivo Anticancer Drug Screen. Data for tumor model A549 Human Adenocarcinoma of Lung with characteristics of Type II Alveolar Epithelial cells (intrarenal inoculation) in NU/NU BALB/C (nude) mice
Conditions: endpoint: mean tumor weight change, schedule: Q04DX003 (ip), higher = larger tumour
In short: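 Mice bearing transplantable tumors were treated and survival or tumor size recorded. Values are given as treated-group measurement divided by vehicle-control measurement (T/C).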

[1] = dose: 100.0 mg/kg/injection, vehicle: saline with Tween-80
[2] = dose: 200.0 mg/kg/injection, vehicle: saline with Tween-80
[3] = dose: 1.25 mg/kg/injection, vehicle: saline + alcohol
[4] = dose: 2.5 mg/kg/injection, vehicle: saline + alcohol
[5] = dose: 25.0 mg/kg/injection, vehicle: saline
[6] = dose: 37.5 mg/kg/injection, vehicle: water
[7] = dose: 75.0 mg/kg/injection, vehicle: water

C[n+]1c(-c2ccc(NC(=O)c3ccc(C(=O)Nc4ccc(-c5cn6ccccc6[n+]5C)cc4)cc3)cc2)cn2ccccc21
T/C (dose: 12.5 mg/kg/injection, vehicle: saline with Tween-80): 47 % of control
T/C (dose: 25.0 mg/kg/injection, vehicle: saline with Tween-80): 49 % of control

CNC(=O)N(C)N=NCCCl
T/C [1]: -19 % of control
T/C [2]: -66 % of control

CC1OC2CC(O)C1(O)C1=C2C(O)=C(C(N)=O)C(=N)C1=O (configuration not stated)
T/C (dose: 0.63 mg/kg/injection, vehicle: saline + alcohol): 66 % of control
T/C [3]: 48 % of control
T/C [4]: 35 % of control
T/C (dose: 5.0 mg/kg/injection, vehicle: saline + alcohol): 94 % of control

O=C1c2ccccc2C(Cl)(c2ccc(Cl)cc2)c2ccc(Cl)cc21 (configuration not stated)
T/C (dose: 150.0 mg/kg/injection, vehicle: saline with Tween-80): 244 % of control

CCOC(=O)Nc1cc2c(c(N)n1)N=C(c1ccc3ccccc3c1)CN2
T/C (dose: 7.5 mg/kg/injection, vehicle: saline with Tween-80): 82 % of control
T/C (dose: 15.0 mg/kg/injection, vehicle: saline with Tween-80): 113 % of control
T/C (dose: 30.0 mg/kg/injection, vehicle: saline with Tween-80): 63 % of control
T/C (dose: 60.0 mg/kg/injection, vehicle: saline with Tween-80): 55 % of control

Nc1nc2n[nH]nc2c(=O)[nH]1
T/C (dose: 75.0 mg/kg/injection, vehicle: suspension in saline): 45 % of control
T/C (dose: 150.0 mg/kg/injection, vehicle: suspension in saline): 60 % of control
T/C (dose: 300.0 mg/kg/injection, vehicle: suspension in saline): 22 % of control

N#Cc1c(N)[nH]c2ccc(Sc3ccccc3)cc12
T/C (dose: 30.0 mg/kg/injection, vehicle: saline): 106 % of control
T/C (dose: 60.0 mg/kg/injection, vehicle: saline): 42 % of control
T/C (dose: 240.0 mg/kg/injection, vehicle: saline): 49 % of control

C=C(Cl)C(=NC(C)(C)C)Nc1ccccc1C
T/C (dose: 10.0 mg/kg/injection, vehicle: Klucel + Tween-80): 73 % of control
T/C (dose: 20.0 mg/kg/injection, vehicle: Klucel + Tween-80): 68 % of control

Cc1cccc(OCC(O)CN2CC2)c1 (configuration not stated)
T/C (dose: 50.0 mg/kg/injection, vehicle: saline with Tween-80): 82 % of control
T/C [1]: 46 % of control
T/C [2]: 81 % of control

CCCCOCN(COCCCC)C12CC3CC(CC(C3)C1)C2
T/C [1]: 123 % of control
T/C (dose: 400.0 mg/kg/injection, vehicle: saline with Tween-80): 203 % of control

c1ccc2c3c(c4c(c2c1)CN(C1CCCCC1)CO4)OCN(C1CCCCC1)C3
T/C (dose: 37.5 mg/kg/injection, vehicle: distilled water + Tween-80): 65 % of control

O=C(Nc1cccnc1)c1ccc([N+](=O)[O-])s1
T/C [2]: 38 % of control and 51 % of control

COc1cc2c(c(OC)c1O)-c1ccc(OC)c(=O)cc1[C@@H](NC(=O)C(F)(F)F)CC2
T/C (dose: 5.0 mg/kg/injection, vehicle: Klucel (hydroxypropylcellulose) (HPC)): 7 % of control
T/C (dose: 7.2 mg/kg/injection, vehicle: Klucel (hydroxypropylcellulose) (HPC)): 116 % of control
T/C (dose: 10.0 mg/kg/injection, vehicle: Klucel (hydroxypropylcellulose) (HPC)): 48 % of control
T/C (dose: 12.0 mg/kg/injection, vehicle: Klucel (hydroxypropylcellulose) (HPC)): 90 % of control

c1cc2c(c(CC3CO3)c1CC1CO1)OCCOCCOCCOCCO2 (configuration not stated)
T/C (dose: 62.5 mg/kg/injection, vehicle: saline + alcohol): 74 % of control
T/C (dose: 125.0 mg/kg/injection, vehicle: saline + alcohol): 98 % of control
T/C (dose: 250.0 mg/kg/injection, vehicle: saline + alcohol): 64 % of control
T/C (dose: 375.0 mg/kg/injection, vehicle: saline + alcohol): 75 % of control

CNC(=O)OCc1nc(SC)n(C)c1COC(=O)NC
T/C (dose: 12.5 mg/kg/injection, vehicle: saline): 156 % of control
T/C [5]: 28 % of control

CCCCCCCCCCCCN1C(C)=CS/C1=C\C=C\c1scc(C)[n+]1CCCCCCCCCCCC
T/C (dose: 0.75 mg/kg/injection, vehicle: saline with Tween-80): 112 % of control
T/C (dose: 1.5 mg/kg/injection, vehicle: saline with Tween-80): 87 % of control
T/C (dose: 6.0 mg/kg/injection, vehicle: saline with Tween-80): 36 % of control

COC1=C(C)C(=O)C2=C(C1=O)C(CO)N1C(C#N)C3CC4C(C1C2N1CCOC41)N3C (configuration not stated)
T/C [3]: 117 % of control
T/C [4]: 45 % of control

Oc1cccc2ccccc12
T/C [6]: 102 % of control
T/C [7]: 54 % of control

O=c1[nH]cnc2c1cnn2CN1CCOCC1
T/C (dose: 50.0 mg/kg/injection, vehicle: Klucel (hydroxypropylcellulose) (HPC)): 166 % of control
T/C (dose: 100.0 mg/kg/injection, vehicle: Klucel (hydroxypropylcellulose) (HPC)): 72 % of control

COc1cc2c(cc1OC)-c1c3c(cc4c1[C@@H](C2)N(C)CC4)OCO3
T/C (dose: 37.5 mg/kg/injection, vehicle: distilled water + Tween-80 + alcohol): 89 % of control
T/C (dose: 75.0 mg/kg/injection, vehicle: distilled water + Tween-80 + alcohol): 84 % of control
T/C (dose: 150.0 mg/kg/injection, vehicle: distilled water + Tween-80 + alcohol): 21 % of control

CN=NN(C)C(=O)NC
T/C [5]: 37 % of control
T/C (dose: 43.2 mg/kg/injection, vehicle: saline): 27 % of control
T/C (dose: 50.0 mg/kg/injection, vehicle: saline): 72 % of control
T/C (dose: 72.0 mg/kg/injection, vehicle: saline): 28 % of control
T/C (dose: 100.0 mg/kg/injection, vehicle: saline): 8 % of control
T/C (dose: 120.0 mg/kg/injection, vehicle: saline): 8 % of control
T/C (dose: 200.0 mg/kg/injection, vehicle: saline): -34 % of control and -27 % of control

O=[N+]([O-])c1ccc([I+]c2ccccc2)cc1
T/C (dose: 18.75 mg/kg/injection, vehicle: Klucel (hydroxypropylcellulose) (HPC)): 35 % of control
T/C (dose: 37.5 mg/kg/injection, vehicle: Klucel (hydroxypropylcellulose) (HPC)): 101 % of control
T/C (dose: 75.0 mg/kg/injection, vehicle: Klucel (hydroxypropylcellulose) (HPC)): 51 % of control

CCOC(=O)/C=C/C(=O)N1CCN(C(=O)/C=C/C(=O)OCC)C(C)C1 (configuration not stated)
T/C (dose: 150.0 mg/kg/injection, vehicle: Klucel (hydroxypropylcellulose) (HPC)): 50 % of control
T/C (dose: 300.0 mg/kg/injection, vehicle: Klucel (hydroxypropylcellulose) (HPC)): 71 % of control
T/C (dose: 600.0 mg/kg/injection, vehicle: Klucel (hydroxypropylcellulose) (HPC)): 49 % of control

[Cl][Pt][Cl].[NH-]C(CO)C(=O)O (configuration not stated)
T/C [6]: 93 % of control
T/C [7]: 247 % of control
T/C (dose: 150.0 mg/kg/injection, vehicle: water): 63 % of control

O=C(O)CCCc1ccc(N(CCCl)CCCl)cc1
T/C (dose: 0.13 mg/kg/injection, vehicle: Klucel (hydroxypropylcellulose) (HPC)): 93 % of control
T/C (dose: 0.2 mg/kg/injection, vehicle: Klucel (hydroxypropylcellulose) (HPC)): 101 % of control
T/C (dose: 0.3 mg/kg/injection, vehicle: Klucel (hydroxypropylcellulose) (HPC)): 169 % of control
T/C (dose: 12.0 mg/kg/injection, vehicle: saline with Tween-80): 118 % of control
T/C (dose: 18.0 mg/kg/injection, vehicle: saline with Tween-80): 64 % of control
T/C (dose: 27.0 mg/kg/injection, vehicle: saline with Tween-80): 15 % of control
